Test results as given in patent US6194217A, “Method of diagnosing or categorizing disorders from biochemical profiles” (ESA, Inc., priority 1993, dated 2001).
Like-named read-outs stand apart in the source and are kept apart here.

What was measured:
[1] = Stability in perchloric acid extracts of nasal secretions over 24 hours at room temperature; type: physicochemical
Excerpt: (§1) Two characteristics make nasal secretions attractive for neurochemical analysis. The secretions are close to the site or origin of the compounds being measured and they are in a strong reducing environment. Oxidation potential measurements of saline suspensions of nasal secretions with platinum vs. Ag/Ag/cl yield values from -0.230 to -0.300 mV compared to lumbar CSF values of -0.050 to -0.170. The reducing character of the tissue is consistent with observation of a large number of easily oxidized peaks on the lower channels of the chromatographic pattern. The reducing character of the sample makes it highly attractive for clinical use because of the stability inferred for the target compounds. Indeed preliminary studies indicate no change in 5-hydroxyindoleacetic acid or homovanillic acid over 24 hours in perchloric acid extracts at room temperature. From the number of peaks in the 35-50 min region, the nasal mucosa also appear to be a stable matrix for small peptides, including fragments of β-amyloid peptide.
Swabs were extracted by cutting the tip and placing it in 300 μl of 0.1 M HClO4, they ere vortexed for 1 min. centrifuged and then reextracted in another 300 μl of 0.1 M HClO4. […] Following centrifugation the pellets are combined, and can be extracted with 40:60 acetonitrilehexane for analysis of ubiquinones and larger peptides.

[2] = Incubation of β-amyloid in saline suspensions of nasal mucosa, development of electroactive peaks; type: in vitro ADME; conditions: over 6 hours, FIG. 7
Excerpt: as §1

O=C(O)Cc1c[nH]c2ccc(O)cc12 [5-hydroxyindoleacetic acid]
change over 24 hours (stability) [1]: no change

β-amyloid
development of electroactive peaks [2]: development over 6 hours of electroactive peaks
electroactive peaks which corresponded to original peaks in the suspension [2]: five

COc1cc(CC(=O)O)ccc1O [homovanillic acid]
change over 24 hours (stability) ([1]; 24 hours, perchloric acid extracts, room temperature, preliminary studies): no change
